{"source": "patent US11485980B2", "about": "“Method of meristem excision and transformation” (Monsanto Technology LLC, priority 2007, dated 2022)", "key": {"cotton explants [1]": {"test_system": "cotton explants", "assay": "Spectinomycin in co-cultivation medium during Agrobacterium-mediated transformation", "conditions": "spectinomycin 50-100 ppm included in the co-cultivation medium; FIG. 8", "method": "After the PlantconTM was closed, it was inserted into an appropriately sized holder, which was placed into a sonicator (e.g. L&R Ultrasonics QS140; L&R Manufacturing Co., […].; or a Honda […] sonicator, Honda, Denshi Japan). […] Sigma 526-36-23; Sigma Chemical Co, St. Louis, Mo.). After up to 5 min of sonication, the PlantconTM was placed securely on a shaker at 65-70 rpm or higher for 10 min for incubation. After inoculation, the Agrobacterium inoculum was removed from the PlantconTM. […] The INO medium may also be supplemented with plant growth regulators such as gibberellins (GA3), auxins (e.g. NAA, IBA, IAA, 2,4-D, dicamba, etc), cytokinins (e.g."}, "cotton explants [2]": {"test_system": "cotton explants", "assay": "Selection of transformed cotton explants with selective agent in tissue culture medium"}}}
{"smiles": "CN[C@@H]1[C@H](O)[C@H](NC)[C@H]2O[C@@]3(O)C(=O)C[C@@H](C)O[C@H]3O[C@@H]2[C@H]1O", "note": "[spectinomycin]", "values": [{"measurement": "Effect on transformation frequency (TF)", "setting": "cotton explants [1]", "result": "enhanced TF"}, {"measurement": "Appearance of non-transformed tissues under selection", "setting": "cotton explants [2]; spectinomycin selection, transformed tissues green and properly developing, FIG. 5", "result": "bleached and often malformed"}]}
{"smiles": "COc1c(Cl)ccc(Cl)c1C(=O)O", "note": "[dicamba]", "values": [{"measurement": "Stably transformed plants produced at concentrations (ppm)", "setting": "cotton explants [2]; selection agent in tissue culture medium, machine excised cotton explants after Agrobacterium co-cultivation", "result": 0.3, "unit": "ppm"}]}
